Results published in patent publication US20160102317A1, “PLANTS HAVING INCREASED TOLERANCE TO HERBICIDES” (BASF SE, priority 2013, published 2016).
Values joined by “and” are separate entries in the source; they are usually repeats but may differ in a detail not shown here. Identical values can stand only once.

Tests used:
[1] = biological target: T1, Hordeum HPPD (SEQ ID: 2) F404L (Hordeum vulgare, UniProt O48604, A164G/F404L/R146V/R147D/R148G); experiment: HPPD activity assay, in vitro characterization of HPPD mutants; assay type: biochemical; conditions: Table 16, Hordeum wild-type = 1
T1 construct: His (N); made in house; host or cells: E. coli BL21 (DE3)
Protocol: (§1) HPPD produces homogentisic acid and CO2 from 4-hydroxyphenylpyruvate (4-HPP) and 02. The activity assay for HPPD is based on the analysis of homogentisic acid by reversed phase HPLC. The assay mixture can contain 150 mM potassium phosphate buffer pH 7.0, 50 mM L-ascorbic acid, 100 μM Catalase (Sigma-Aldrich), 1 μM FeSO4 and 0.2 units of purified HPPD enzyme in a total volume of 505 μl. 1 unit is defined as the amount of enzyme that is required to produce 1 nmol of HGA per minute at 20° C.
(§2) After a preincubation of 30 min the reaction is started by adding 4-HPP to a final concentration of 0.05 mM. The reaction is allowed to proceed for 45 min at room temperature. The reaction is stopped by the addition of 50 μl of 4.5 M phosphoric acid. The sample is filtered using a […] pore size PVDF filtration device.
(§3) 5 μl of the cleared sample is analyzed on an UPLC HSS T3 column (particle size 1.8 μm, dimensions 2.1×50 mm; Waters) by isocratic elution using 90% 20 mM NaH2PO4 pH 2.2, 10% methanol (v/v).
(§4) HGA is detected electrochemically at 750 mV (mode: DC; polarity: positive) and quantified by integrating peak areas (Empower software; Waters).
(§5) Inhibitors are dissolved in DMSO (dimethylsulfoxide) to a concentration of 0.5 mM. From this stock solution serial five-fold dilutions are prepared in DMSO, which are used in the assay. The respective inhibitor solution accounts for 1% of the assay volume. […] Activities are normalized by setting the uninhibited enzyme activity to 100%. IC50 values are calculated using non-linear regression.
(§6) Purified, mutant HPPD enzymes are obtained by the methods described above. Dose response and kinetic measurements are carried out using the described HPPD activity assay. Apparent michaelis constants (Km) and maximal reaction velocities (Vmax) are calculated by non-linear regression with the software GraphPad Prism 5 (Graph Pad Software, La Jolla, USA) using a substrate inhibition model. […] Weighted means (by standard error) of Km and IC50 values are calculated from at least three independent experiments.
(§7) Field performance of the optimized HPPD enzyme, which is used as a herbicide tolerance trait may depend not only on its lack of sensitivity towards HPPD inhibiting herbicides but also on its activity. To assess the potential performance of a herbicide tolerance trait a tolerance index (TI) is calculated using the following formula: […]
(§8) Easy comparison and ranking of each trait is enabled by normalizing tolerance indexes on Arabidopsis wild-type HPPD.

[2] = biological target: T2, Hordeum HPPD (SEQ ID: 2) L320H (Hordeum vulgare, UniProt O48604, A164G/L320H/R146V/R147D/R148G); experiment: as above; assay type: biochemical; conditions: Table 16, Hordeum wild-type = 1
T2 construct: His (N); made in house; host or cells: E. coli BL21 (DE3)
Protocol: as §1, §2, §3, §4, §5, §6, §7, §8

[3] = biological target: T3, Hordeum HPPD (SEQ ID: 2) L320H, P321A (Hordeum vulgare, UniProt O48604, L320H/P321A); experiment: as above; assay type: biochemical; conditions: Table 16, Hordeum wild-type = 1
T3 construct: His (N); made in house; host or cells: E. coli BL21 (DE3)
Protocol: as §1, §2, §3, §4, §5, §6, §7, §8

[4] = biological target: T4, Hordeum HPPD (SEQ ID: 2) L320Q (Hordeum vulgare, UniProt O48604, A164G/L320Q/R146V/R147D/R148G); experiment: as above; assay type: biochemical; conditions: Table 16, Hordeum wild-type = 1
T4 construct: His (N); made in house; host or cells: E. coli BL21 (DE3)
Protocol: as §1, §2, §3, §4, §5, §6, §7, §8

[5] = biological target: T5, Hordeum HPPD (SEQ ID: 2) L353M, P321R, L320N (Hordeum vulgare, UniProt O48604, L320N/L353M/P321R); experiment: as above; assay type: biochemical; conditions: Table 16, Hordeum wild-type = 1
T5 construct: His (N); made in house; host or cells: E. coli BL21 (DE3)
Protocol: as §1, §2, §3, §4, §5, §6, §7, §8

[6] = biological target: T6, Hordeum HPPD (SEQ ID: 2) L353M, P321R, L320Q (Hordeum vulgare, UniProt O48604, L320Q/L353M/P321R); experiment: as above; assay type: biochemical; conditions: Table 16, Hordeum wild-type = 1
T6 construct: His (N); made in house; host or cells: E. coli BL21 (DE3)
Protocol: as §1, §2, §3, §4, §5, §6, §7, §8

[7] = biological target: T7, Hordeum HPPD (SEQ ID: 2) R309K (Hordeum vulgare, UniProt O48604, A164G/R146V/R147D/R148G/R309K); experiment: as above; assay type: biochemical; conditions: Table 16, Hordeum wild-type = 1
T7 construct: His (N); made in house; host or cells: E. coli BL21 (DE3)
Protocol: as §1, §2, §3, §4, §5, §6, §7, §8

[8] = biological target: T8, Hordeum HPPD (SEQ ID: 2) S252T (Hordeum vulgare, UniProt O48604, A164G/R146V/R147D/R148G/S252T); experiment: as above; assay type: biochemical; conditions: Table 16, Hordeum wild-type = 1
T8 construct: His (N); made in house; host or cells: E. coli BL21 (DE3)
Protocol: as §1, §2, §3, §4, §5, §6, §7, §8

[9] = test system: Wild-type Arabidopsis plants; experiment: Arabidopsis growth inhibition in 48-well plates, tolerance factor; assay type: in vivo, Arabidopsis thaliana; conditions: plant growth IC50 relative to wild-type plants; Wild-type line
Protocol: Depending on the species, the plants are kept at 10-25° C. or 20-35° C. The test period extends over 3 weeks. During this time, the plants are tended and their response to the individual treatments is evaluated. Herbicide injury evaluations are taken at 2 and 3 weeks after treatment. Plant injury is rated on a scale of 0 to 9, 0 being no injury and 9 being complete death. Tolerance to HPPD-inhibiting herbicides can also be assessed in Arabidopsis. In this case transgenic Arabidopsis thaliana plants are assayed for improved tolerance to HPPD-inhibiting herbicides in 48-well plates. Seeds are surface sterilized by stirring for 5 min in ethanol+water (70+30 by volume), rinsing one time with ethanol+water (70+30 by volume) and two times with a sterile, deionized water. The seeds are resuspended in 0.1% agar dissolved in water (w/v). Four to five seeds per well are plated on solid nutrient medium consisting of half-strength Murashige Skoog nutrient solution, pH 5.8 (Murashige and Skoog (1962) Physiologia Plantarum 15: 473-497). […] Seven to ten days after seeding growth inhibition is evaluated by comparison to wild-type plants. Tolerance factor is calculated by dividing the plant growth IC50 value of transgenic plants containing a HPPD and/or HST sequence by that of wild-type plants.

T1 sequence (O48604 whole entry R146V/R147D/R148G/A164G/F404L): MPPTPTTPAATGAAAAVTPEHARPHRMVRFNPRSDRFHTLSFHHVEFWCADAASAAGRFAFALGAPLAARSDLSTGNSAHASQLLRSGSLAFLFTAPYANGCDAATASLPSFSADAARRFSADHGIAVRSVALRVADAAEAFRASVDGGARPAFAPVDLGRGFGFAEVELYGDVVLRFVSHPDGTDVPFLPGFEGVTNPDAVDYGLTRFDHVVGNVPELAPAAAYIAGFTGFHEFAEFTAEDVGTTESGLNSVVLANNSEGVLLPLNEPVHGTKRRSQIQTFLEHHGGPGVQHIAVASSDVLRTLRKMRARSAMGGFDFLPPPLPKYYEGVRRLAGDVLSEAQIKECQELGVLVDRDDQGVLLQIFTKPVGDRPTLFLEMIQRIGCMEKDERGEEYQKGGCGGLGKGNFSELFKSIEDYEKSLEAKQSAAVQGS
T6 sequence (O48604 whole entry R146V/R147D/R148G/A164G/L320Q/P321R/L353M): as the sequence (O48604 whole entry R146V/R147D/R148G/A164G/F404L) above, with L320Q, P321R, L353M, L404F counted along it
T2 sequence (O48604 whole entry R146V/R147D/R148G/A164G/L320H): as the sequence (O48604 whole entry R146V/R147D/R148G/A164G/F404L) above, with L320H, L404F counted along it
T7 sequence (O48604 whole entry R146V/R147D/R148G/A164G/R309K): as the sequence (O48604 whole entry R146V/R147D/R148G/A164G/F404L) above, with R309K, L404F counted along it
T5 sequence (O48604 whole entry R146V/R147D/R148G/A164G/L320N/P321R/L353M): as the sequence (O48604 whole entry R146V/R147D/R148G/A164G/F404L) above, with L320N, P321R, L353M, L404F counted along it
T3 sequence (O48604 whole entry R146V/R147D/R148G/A164G/L320H/P321A): as the sequence (O48604 whole entry R146V/R147D/R148G/A164G/F404L) above, with L320H, P321A, L404F counted along it
T8 sequence (O48604 whole entry R146V/R147D/R148G/A164G/S252T): as the sequence (O48604 whole entry R146V/R147D/R148G/A164G/F404L) above, with S252T, L404F counted along it
T4 sequence (O48604 whole entry R146V/R147D/R148G/A164G/L320Q): as the sequence (O48604 whole entry R146V/R147D/R148G/A164G/F404L) above, with L320Q, L404F counted along it

## COc1no[nH]/c1=N/C(=O)c1ccc2c(c1Cl)S(=O)(=O)CCC2(C)C [Inhibitor 1, (NE)-8-chloro-N-(4-methoxy-1,2,5-oxadiazol-3-ylidene)-4,4-dimethyl-1,1-dioxo-2,3-dihydrothiochromene-7-carboxamide]
[1]
  TI Inhibitor 1 (normalized tolerance index): 2.1
[2]
  TI Inhibitor 1 (normalized tolerance index): 0.6
[3]
  TI Inhibitor 1 (normalized tolerance index): 0.5
[4]
  TI Inhibitor 1 (normalized tolerance index): 0.1
[5]
  TI Inhibitor 1 (normalized tolerance index): 0.2
[6]
  TI Inhibitor 1 (normalized tolerance index): 1.2
[7]
  TI Inhibitor 1 (normalized tolerance index): 0.4
[8]
  TI Inhibitor 1 (normalized tolerance index): 2.4
[9]
  Tolerance factor towards Inhibitor 1: 1

## Cc1c(C(=O)Nc2nnnn2C)ccc2c1C(=O)C(C)(C)CS2(=O)=O [Inhibitor 2, 3,3,5-trimethyl-N-(1-methyltetrazol-5-yl)-1,1,4-trioxo-2H-thiochromene-6-carboxamide]
[1]
  TI Inhibitor 2 (normalized tolerance index): 3 and 3.1
[2]
  TI Inhibitor 2 (normalized tolerance index): 4.4
[3]
  TI Inhibitor 2 (normalized tolerance index): 3.6
[4]
  TI Inhibitor 2 (normalized tolerance index): 1.4
[5]
  TI Inhibitor 2 (normalized tolerance index): 3.5
[6]
  TI Inhibitor 2 (normalized tolerance index): 3.5 and 3.4
[7]
  TI Inhibitor 2 (normalized tolerance index): 2.8
[8]
  TI Inhibitor 2 (normalized tolerance index): 5.9
[9]
  Tolerance factor towards Inhibitor 2: 1
